Values after ≈ are worked out from the molar mass of the structure shown. *1 amine or outer side, *2 acyl side, *3 side chain or, on linkers, in order; H or OH if unused. Where a SMILES comes first, the peptide text is derived from it. Bridges are numbered along the chain shown (N, C = ends). [ ]: non-standard residue; d: D form. The star is where a group is joined. Phe(3,5-F2) = N[C@@H](Cc1cc(F)cc(F)c1)C(=O)O; NHPh(4-CF3) = FC(F)(F)c1ccc(N*)cc1; aThr = C[C@H](O)[C@H](N)C(=O)O; Pip = O=C(O)[C@@H]1CCCCN1; CO = O=C([*:1])[*:2]
Experiments:
[1] = system: B. subtilis ATCC 23857; test: Minimal inhibitory concentration, microbroth dilution; type: cell-based; conditions: Bacillus subtilis, ATCC23857, read-out: Minimal Inhibitory Concentration B. subtilis ATCC 23857
Outline: (§1)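 Following CLSI M7-A7 microbroth dilution, twofold serial dilutions of compound (top final concentration 200 μM) were combined with an equal volume of broth inoculum at about 10^5 cfu/mL. Plates were incubated aerobically at 37 °C overnight, and the MIC was the lowest concentration preventing visible growth.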

[2] = system: S. aureus ATCC 29213; test: as above; type: cell-based; conditions: Staphylococcus aureus, ATCC29213, read-out: Minimal Inhibitory Concentration S. aureus ATCC 29213
Outline: as §1

[3] = target: T1, S. aureus ClpP (Sa-ClpP) (Staphylococcus aureus, UniProt Q2G036); test: ClpP activation, casein-BODIPY digestion assay (first described method); type: biochemical; conditions: first described ClpP activation assay (**); 10 μM saClpP, 25 μg/ml BODIPY FL casein, 37° C.; read-out: ClpP Activation EC50
T1 construct: made in house; host or cells: E. coli BL21 (DE3)
T1 sequence (Q2G036 whole entry): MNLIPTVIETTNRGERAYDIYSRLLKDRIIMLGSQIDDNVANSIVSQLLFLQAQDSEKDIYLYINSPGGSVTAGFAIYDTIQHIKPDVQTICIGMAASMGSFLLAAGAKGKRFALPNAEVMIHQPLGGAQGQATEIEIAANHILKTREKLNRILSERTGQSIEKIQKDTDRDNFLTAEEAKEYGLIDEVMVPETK
Outline: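 Purified E. coli-expressed Sa-ClpP (10 μM) with 25 μg/ml BODIPY FL casein and 0-100 μM compound in 50 mM Tris pH 8, 200 mM KCl, 1 mM TCEP at 37° C. Fluorescence (ex 485/em 528 nm) read every 5 min over 45 min; velocities fit to dose-response for EC50 of 50% activation, in triplicate.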

[4] = target: T2, Sa-ClpP (Staphylococcus aureus, UniProt Q2G036); test: ADEP displacement fluorescence polarization assay; type: binding, S. aureus; conditions: 1 μM Sa-ClpP, 50 nM FP probe ADEP 2591; read-out: ADEP Displacement IC50
T2 construct: made in house; host or cells: E. coli BL21 (DE3)
T2 sequence (Q2G036 whole entry): as above
Outline: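 Displacement of TAMRA-labelled ADEP 2591 probe (50 nM) from 1 μM Sa-ClpP, pre-equilibrated 1 h in Tris·HCl pH 8.0 with 2% DMSO, then 120 min at room temperature with compound, triplicate. Polarization (mP) read ex 530/em 579 nm, normalised to 20 μM ADEP 2378 and DMSO controls; four-parameter fit.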

[5] = Cytotoxicity assay, CellTiter-Glo cell viability; type: cell-based; conditions: African green monkey; Vero cells, 72 hours; read-out: Cytotoxicity IC50
Outline: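 Vero cells seeded overnight at 37 °C in DMEM with 10% FBS, then exposed to serial dilutions of compound for 72 h. Viability read by CellTiter-Glo luminescence; IC50 from duplicates, given as the range of two independent experiments.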

SMILES: C[C@@H]1NC(=O)[C@@H]2CCCCN2C(=O)[C@@H]2CCCN2C(=O)[C@@H](NC(=O)[C@H](Cc2cc(F)cc(F)c2)NC(=O)Nc2ccc(C(F)(F)F)cc2)[C@H](C)OC(=O)[C@@H]2CCCN2C1=O [Compound 16, (S)-3-(3,5-Difluorophenyl)-N-((6S,8aS,14aS,20S,21 S,23aS)-6,21-Dimethyl-5,8,14,19,23-Pentaoxooctadecahydro-1H,5H,14H,19H-Pyrido[2,1-I]Dipyrrolo[2,1-C:2′,1′-L][1]Oxa[4,7,10,13]Tetraazacyclohexadecin-20-Yl)-2-(3-(4-(Trifluoromethyl)Phenyl)Ureido)Propanamide] ({NHPh(4-CF3)-CO}-[Phe(3,5-F2)][aThr]P[Pip]AP; ester 2-C)
- MIC [1]: 0.4 µM (≈ 0.339 µg/mL)
- MIC [2]: 0.4 µM (≈ 0.339 µg/mL)
- EC50 [3]: 4.4 ± 0.7 µM
- IC50 [4]: 8.3 ± 0.6 µM
- IC50 at 72 h [5]: 74.3 ± 9 µM

SMILES: Cc1ccc(NC(=O)N[C@@H](Cc2cc(F)cc(F)c2)C(=O)N[C@H]2COC(=O)[C@@H]3C[C@@H](C)CN3C(=O)[C@H](C)NC(=O)[C@@H]3CCCCN3C(=O)[C@@H]3CCCN3C2=O)cc1 [Compound 24, (S)-3-(3,5-Difluorophenyl)-N-((2R,6S,8aS,14aS,20S,23aS)-2,6-Dimethyl-5,8,14,19,23-Pentaoxooctadecahydro-1H,5H,14H,19H-Pyrido[2,1-I]Dipyrrolo[2,1-C:2′,1′-L][1]Oxa[4,7,10,13]Tetraazacyclohexadecin-20-Yl)-2-(3-(P-Tolyl)Ureido)Propanamide]
- MIC [1]: 2.2 µM (≈ 1.75 µg/mL)
- MIC [2]: 0.5 µM (≈ 0.397 µg/mL)
- EC50 [3]: 3.3 ± 0.2 µM
- IC50 [4]: 8.6 ± 0.5 µM
- IC50 at 72 h [5]: 93.8 ± 4.8 µM

SMILES: C[C@@H]1C[C@H]2C(=O)OC[C@H](NC(=O)[C@H](Cc3ccccc3)NC(=O)Nc3ccc4c(c3)CCN4C)C(=O)N3CCC[C@H]3C(=O)N3CCCC[C@H]3C(=O)N[C@@H](C)C(=O)N2C1 [Compound 11, (S)—N-((2R,6S,8aS,14aS,20S,23aS)-2,6-Dimethyl-5,8,14,19,23-Pentaoxooctadecahydro-1H,5H,14H,19H-Pyrido[2,1-I]Dipyrrolo[2,1-C:2′,1′-L][1]Oxa[4,7,10,13]Tetraazacyclohexadecin-20-Yl)-2-(3-(1-Methylindolin-5-Yl)Ureido)-3-Phenylpropanamide]
- MIC [1]: 1.25 µM (≈ 0.999 µg/mL)
- MIC [2]: 2.5 µM (≈ 2 µg/mL)
- EC50 [3]: 2.3 ± 0.3 µM
- IC50 [4]: 4.45 ± 0.3 µM
- IC50 at 72 h [5]: 76 ± 10.6 µM

SMILES: C[C@@H]1C[C@H]2C(=O)OC[C@H](NC(=O)[C@H](Cc3ccccc3)NC(=O)Nc3ccc(Cl)cc3)C(=O)N3CCC[C@H]3C(=O)N3CCCC[C@H]3C(=O)N[C@@H](C)C(=O)N2C1 [Compound 3, (S)-2-(3-(4-Chlorophenyl)Ureido)-N-((2R,6S,8aS,14aS,20S,23aS)-2,6-Dimethyl-5,8,14,19,23-Pentaoxooctadecahydro-1H,5H,14H,19H-Pyrido[2,1-I]Dipyrrolo[2,1-C:2′,1′-L][1]Oxa[4,7,10,13]Tetraazacyclohexadecin-20-Yl)-3-Phenylpropanamide]
- MIC [1]: 0.78 µM (≈ 0.607 µg/mL)
- MIC [2]: 1.56 µM (≈ 1.21 µg/mL)
- EC50 [3]: 3.3 ± 0.2 µM
- IC50 [4]: 9.25 ± 0.5 µM
- IC50 at 72 h [5]: 63 ± 5.8 µM

— US9879050B2, “Substituted urea depsipeptide analogs as activators of the CLPP endopeptidase” (priority 2013, dated 2018)
